Results reported in patent publication US9914730B2, “Azaquinazoline inhibitors of Atypical protein Kinase C” (Ignyta, Inc., priority 2012, dated 2018).

Biological target: T1, full-length human PKCι (Homo sapiens, UniProt P41743)
T1 construct: Recombinant, full-length human PKCι expressed in Sf21 insect cells is also commercially available; purchased; host or cells: Sf21 insect cells
T1 sequence (P41743 1-596): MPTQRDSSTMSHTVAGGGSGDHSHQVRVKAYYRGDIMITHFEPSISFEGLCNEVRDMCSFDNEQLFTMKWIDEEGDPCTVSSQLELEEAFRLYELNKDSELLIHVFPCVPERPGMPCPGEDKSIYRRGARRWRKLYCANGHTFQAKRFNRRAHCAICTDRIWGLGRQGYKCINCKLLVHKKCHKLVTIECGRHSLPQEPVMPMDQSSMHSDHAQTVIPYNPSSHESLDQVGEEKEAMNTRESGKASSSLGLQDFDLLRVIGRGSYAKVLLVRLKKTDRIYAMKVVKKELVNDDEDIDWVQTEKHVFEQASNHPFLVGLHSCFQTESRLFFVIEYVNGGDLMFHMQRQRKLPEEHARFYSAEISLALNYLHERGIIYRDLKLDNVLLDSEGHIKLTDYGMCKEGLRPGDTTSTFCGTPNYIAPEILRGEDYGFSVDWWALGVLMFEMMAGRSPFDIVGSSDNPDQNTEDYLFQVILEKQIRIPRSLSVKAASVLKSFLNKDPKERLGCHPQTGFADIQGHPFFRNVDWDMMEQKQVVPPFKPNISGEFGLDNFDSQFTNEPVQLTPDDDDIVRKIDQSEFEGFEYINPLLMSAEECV
Assay: PKCι IC50 IMAP assay, full-length PKCι at 150 μM ATP
Assay type: biochemical
Details: read-out: IC50 in IMAP assay against full length PKCi at 150 μM ATP
Outline: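 Full-length human PKCι from Sf21 cells, typically 15 pM, with 100 nM 5FAM-PKCε pseudosubstrate peptide and 150 μM ATP (5× apparent KM), 60 min at room temperature, 4% DMSO. IMAP fluorescence polarisation read-out; inhibition normalised to no-compound and no-enzyme controls, IC50 from curve fit.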

Row | IC50 | Structure (SMILES)
1 | < 0.1 µM | COc1cccc(Nc2cc(-c3nc(N4CCNCC4)c4c(C5CC5)cncc4n3)ccn2)c1C [Example 591, [4-(5-Cyclopropyl-4-piperazin-1-yl-pyrido[3,4-d]pyrimidin-2-yl)-pyridin-2-yl]-(3-methoxy-2-methyl-phenyl)-amine]
2 | 10 to 40 µM | FC(F)(F)c1ccc(Cl)c(Nc2cc(-c3nc(N4CCNCC4)c4c(C5CC5)cncc4n3)ccn2)c1 [Example 597, (2-Chloro-5-trifluoromethyl-phenyl)-[4-(5-cyclopropyl-4-piperazin-1-yl-pyrido[3,4-d]pyrimidin-2-yl)-pyridin-2-yl]-amine]
3 | 1 to 10 µM | Cn1ccc(Nc2cc(-c3nc(N4CCNCC4)c4c(C5CC5)cncc4n3)ccn2)n1 [Example 600, [4-(5-Cyclopropyl-4-piperazin-1-yl-pyrido[3,4-d]pyrimidin-2-yl)-pyridin-2-yl]-(l-methyl-1H-pyrazol-3-yl)-amine]
4 | < 0.1 µM | Cc1cc(F)c(Nc2cc(-c3nc(N4CCNCC4)c4c(C5CC5)cncc4n3)ccn2)c(F)c1 [Example 604, [4-(5-Cyclopropyl-4-piperazin-1-yl-pyrido[3,4-d]pyrimidin-2-yl)-pyridin-2-yl]-(2,6-difluoro-4-methyl-phenyl)-amine]
5 | 0.1 to 1 µM | OC[C@@H](O)CN1CCN(c2nc(-c3ccnc(Nc4ccccc4)c3)nc3cncc(C4CC4)c23)CC1 [Example 607, (S)-3-{4-[5-Cyclopropyl-2-(2-phenylamino-pyridin-4-yl)-pyrido[3,4-d]pyrimidin-4-yl]-piperazin-1-yl}-propane-1,2-diol]
6 | 0.1 to 1 µM | OC[C@H](O)CN1CCN(c2nc(-c3ccnc(Nc4ccccc4)c3)nc3cncc(C4CC4)c23)CC1 [Example 608, (R)-3-{4-[5-Cyclopropyl-2-(2-phenylamino-pyridin-4-yl)-pyrido[3,4-d]pyrimidin-4-yl]-piperazin-1-yl}-propane-1,2-diol]
7 | < 0.1 µM | O=C(Cc1ccccc1)Nc1cc(-c2nc(N3CCNCC3)c3c(C4CC4)cncc3n2)ccn1 [Example 612, N-[4-(5-Cyclopropyl-4-piperazin-1-yl-pyrido[3,4-d]pyrimidin-2-yl)-pyridin-2-yl]-2-phenyl-acetamide]
8 | < 0.1 µM | CN1CCP(=O)(c2ccc(Nc3cc(-c4nc(N5CCNCC5)c5c(C6CC6)cncc5n4)ccn3)cc2)CC1 [Example 614, [4-(5-Cyclopropyl-4-piperazin-1-yl-pyrido[3,4-d]pyrimidin-2-yl)-pyridin-2-yl]-[4-(1-methyl-4-oxo-4λ^5-[1,4]azaphos-phinan-4-yl)-phenyl]-amine]
9 | 0.1 to 1 µM | FC(F)(F)CC1CN(c2nc(-c3ccnc(Cl)c3)nc3cncc(C4CC4)c23)CCN1 (centres unmarked) [Example 615, 2-(2-Chloro-pyridin-4-yl)-5-cyclopropyl-4-[3-(2,2,2-trifluoro-ethyl)-piperazin-1-yl]-pyrido[3,4-d]pyrimidine]
10 | < 0.1 µM | Cc1ccc(Cl)c(Nc2cc(-c3nc(N4CCNCC4)c4c(C5CC5)cncc4n3)ccn2)c1F [Example 617, (6-Chloro-2-fluoro-3-methyl-phenyl)-[4-(5-cyclopropyl-4-piperazin-1-yl-pyrido[3,4-d]pyrimidin-2-yl)-pyridin-2-yl]-amine]
11 | < 0.1 µM | Fc1ccc(Cl)c(F)c1Nc1cc(-c2nc(N3CCNCC3)c3c(C4CC4)cncc3n2)ccn1 [Example 618, (3-Chloro-2,6-difluoro-phenyl)-[4-(5-cyclopropyl-4-piperazin-1-yl-pyrido[3,4-d]pyrimidin-2-yl)-pyridin-2-yl]-amine]

Second part, the compound before the results:

Row | Structure (SMILES) | IC50
12 | COc1cccc(Nc2cc(-c3nc(N4CCNCC4)c4c(C5CC5)cncc4n3)ccn2)n1 [Example 588, [4-(5-Cyclopropyl-4-piperazin-1-yl-pyrido[3,4-d]pyrimidin-2-yl)-pyridin-2-yl]-(6-methoxy-pyridin-2-yl)-amine] | < 0.1 µM
13 | COc1cccc(Nc2cc(-c3nc(N4CCNCC4)c4c(C5CC5)cncc4n3)ccn2)c1F [Example 589, [4-(5-Cyclopropyl-4-piperazin-1-yl-pyrido[3,4-d]pyrimidin-2-yl)-pyridin-2-yl]-(2-fluoro-3-methoxy-phenyl)-amine] | < 0.1 µM
14 | COc1cc(F)c(Nc2cc(-c3nc(N4CCNCC4)c4c(C5CC5)cncc4n3)ccn2)c(F)c1 [Example 590, [4-(5-Cyclopropyl-4-piperazin-1-yl-pyrido[3,4-d]pyrimidin-2-yl)-pyridin-2-yl]-(2,6-difluoro-4-methoxy-phenyl)-amine] | < 0.1 µM
15 | COc1ccc(Cl)c(Nc2cc(-c3nc(N4CCNCC4)c4c(C5CC5)cncc4n3)ccn2)c1 [Example 592, (2-Chloro-5-methoxy-phenyl)-[4-(5-cyclopropyl-4-piperazin-1-yl-pyrido[3,4-d]pyrimidin-2-yl)-pyridin-2-yl]-amine] | < 0.1 µM
16 | Fc1ccc(Nc2cc(-c3nc(N4CCNCC4)c4c(C5CC5)cncc4n3)ccn2)cc1 [Example 594, [4-(5-Cyclopropyl-4-piperazin-1-yl-pyrido[3,4-d]pyrimidin-2-yl)-pyridin-2-yl]-(4-fluoro-phenyl)-amine] | < 0.1 µM
17 | FC(F)(F)c1ccc(Nc2cc(-c3nc(N4CCNCC4)c4c(C5CC5)cncc4n3)ccn2)cc1 [Example 595, [4-(5-Cyclopropyl-4-piperazin-1-yl-pyrido[3,4-d]pyrimidin-2-yl)-pyridin-2-yl]-(4-trifluoromethyl-phenyl)-amine] | < 0.1 µM
18 | CC(C)(Nc1cc(-c2nc(N3CCNCC3)c3c(C4CC4)cncc3n2)ccn1)C(F)(F)F [Example 598, [4-(5-Cyclopropyl-4-piperazin-1-yl-pyrido[3,4-d]pyrimidin-2-yl)-pyridin-2-yl]-(2,2,2-trifluoro-1,1-dimethyl-ethyl)-amine] | < 0.1 µM
19 | Fc1ccc(Nc2cc(-c3nc(N4CCNCC4)c4c(C5CC5)cncc4n3)ccn2)cc1F [Example 599, [4-(5-Cyclopropyl-4-piperazin-1-yl-pyrido[3,4-d]pyrimidin-2-yl)-pyridin-2-yl]-(3,4-difluoro-phenyl)-amine] | < 0.1 µM
20 | FC1CCC(Nc2cc(-c3nc(N4CCNCC4)c4c(C5CC5)cncc4n3)ccn2)CC1 (centres unmarked) [Example 601, [4-(5-Cyclopropyl-4-piperazin-1-yl-pyrido[3,4-d]pyrimidin-2-yl)-pyridin-2-yl]-(4-fluorocyclohexyl)-amine] | < 0.1 µM
21 | Fc1cc(C2CC2)cc(F)c1Nc1cc(-c2nc(N3CCNCC3)c3c(C4CC4)cncc3n2)ccn1 [Example 603, (4-Cyclopropyl-2,6-difluoro-phenyl)-[4-(5-cyclopropyl-4-piperazin-1-yl-pyrido[3,4-d]pyrimidin-2-yl)-pyridin-2-yl]-amine] | < 0.1 µM
22 | Cn1cnc(Nc2cc(-c3nc(N4CCNCC4)c4c(C5CC5)cncc4n3)ccn2)c1 [Example 605, [4-(5-Cyclopropyl-4-piperazin-1-yl-pyrido[3,4-d]pyrimidin-2-yl)-pyridin-2-yl]-(1-methyl-1H-imidazol-4-yl)-amine] | < 0.1 µM
23 | OCCN1CCN(c2nc(-c3ccnc(Nc4ccccc4)c3)nc3cncc(C4CC4)c23)CC1 [Example 606, 2-{4-[5-Cyclopropyl-2-(2-phenylamino-pyridin-4-yl)-pyrido[3,4-d]pyrimidin-4-yl]-piperazin-1-yl}-ethanol] | 0.1 to 1 µM
24 | COc1cc(Nc2cc(-c3nc(N4CCNCC4)c4c(C5CC5)cncc4n3)ccn2)ccc1C [Example 609, [4-(5-Cyclopropyl-4-piperazin-1-yl-pyrido[3,4-d]pyrimidin-2-yl)-pyridin-2-yl]-(3-methoxy-4-methyl-phenyl)-amine] | < 0.1 µM
25 | COc1ccc(Nc2cc(-c3nc(N4CCNCC4)c4c(C5CC5)cncc4n3)ccn2)cc1OC [Example 610, [4-(5-Cyclopropyl-4-piperazin-1-yl-pyrido[3,4-d]pyrimidin-2-yl)-pyridin-2-yl]-(3,4-dimethoxy-phenyl)-amine] | < 0.1 µM
26 | COc1cc(Nc2cc(-c3nc(N4CCNCC4)c4c(C5CC5)cncc4n3)ccn2)cc(OC)c1OC [Example 611, [4-(5-Cyclopropyl-4-piperazin-1-yl-pyrido[3,4-d]pyrimidin-2-yl)-pyridin-2-yl]-(3,4,5-trimethoxy-pheny)-amine] | 0.1 to 1 µM
27 | O=C(CC(F)(F)F)Nc1cc(-c2nc(N3CCNCC3)c3c(C4CC4)cncc3n2)ccn1 [Example 613, N-[4-(5-Cyclopropyl-4-piperazin-1-yl-pyrido[3,4-d]pyrimidin-2-yl)-pyridin-2-yl]-3,3,3-trifluoro-propionamide] | < 0.1 µM
28 | Fc1cccc(Cl)c1Nc1cc(-c2nc(N3CCNCC3)c3c(C4CC4)cncc3n2)ccn1 [Example 616, (2-Chloro-6-fluoro-phenyl)-[4-(5-cyclopropyl-4-piperazin-1-yl-pyrido[3,4-d]pyrimidin-2-yl)-pyridin-2-yl]-amine] | < 0.1 µM
29 | c1ccc(Nc2cc(-c3nc(N4CCNCC4)c4c(C5CCC5)cncc4n3)ccn2)cc1 [Example 619, [4-(5-Cyclobutyl-4-piperazin-1-yl-pyrido[3,4-d]pyrimidin-2-yl)-pyridin-2-yl]-phenyl-amine] | < 0.1 µM
